Here are results for seven compounds from patent US20260355196A1, “INHIBITORS AND DEGRADERS OF PIP4K PROTEIN” (Larkspur Biosciences, Inc., priority 2023, published 2026).

The first assay has as its target T1, PIP4K2C (Homo sapiens, UniProt Q8TBX8).
T1 sequence (Q8TBX8 1-421): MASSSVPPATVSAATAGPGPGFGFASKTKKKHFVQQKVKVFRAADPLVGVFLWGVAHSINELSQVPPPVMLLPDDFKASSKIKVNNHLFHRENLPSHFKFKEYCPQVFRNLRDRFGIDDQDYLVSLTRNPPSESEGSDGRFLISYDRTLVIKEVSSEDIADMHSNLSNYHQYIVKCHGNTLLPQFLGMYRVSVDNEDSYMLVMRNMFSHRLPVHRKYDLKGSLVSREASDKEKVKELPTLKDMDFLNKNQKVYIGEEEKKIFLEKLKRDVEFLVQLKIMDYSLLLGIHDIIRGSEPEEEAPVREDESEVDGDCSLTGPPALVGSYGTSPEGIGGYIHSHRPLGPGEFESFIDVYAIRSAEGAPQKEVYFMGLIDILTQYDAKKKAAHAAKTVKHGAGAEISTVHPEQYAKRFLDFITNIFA
As to the kind of experiment: HiBiT PIP4K2C degradation assay in MOLT-4 cells (endogenous PIP4K2C C-terminally tagged with HiBiT). It counts as cell-based. Set-up: untagged in primary human PBMCs and monocyte-derived dendritic cells. The settings on record: 6 hours of incubation time, rather than 24 hours; MOLT-4, top concentration 10 micromolar; read-out: HiBIT-degradation MOLT4 PIP4k2C DC50 (6 hours, marked *). Summed up:
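Cells are plated onto compound dilutions (10 points, 3-fold, top 10 micromolar) and incubated 24 or 6 hours at 37 C. Lytic HiBiT detection then quantifies tagged endogenous PIP4K2C in MOLT-4, and a Hill fit yields DC50.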
(With HiBiT, luminescence reflects the tagged protein that the partner subunit can reach.)
In the case of `O=C1CCC(Nc2ccc(C3CCN(C(=O)CC4(O)CCN(C(=O)O[C@H]5CC[C@H](Nc6ncc(F)c(-c7cccc(-n8ccccc8=O)c7)n6)CC5)CC4)CC3)c(F)c2)C(=O)N1` (stereo partly drawn) [Compound 663, trans-4-((5-fluoro-4-(3-(2-oxopyridin-1 (2H)-yl)phenyl)pyrimidin-2-yl)amino)cyclohexyl 4-(2-(4-(4-((2,6-dioxopiperidin-3-yl)amino)-2-fluorophenyl)piperidin-1-yl)-2-oxoethyl)-4-hydroxypiperidine-1-carboxylate], the DC50 (as a rule, the midpoint of the concentration-degradation curve) was less than 500 nM.

Turning to `O=C1CCC(Nc2ccc(C3CCN(C4CC5(CC(OC(=O)N6CCC(Nc7ncc(F)c(-c8cccc(-n9ccccc9=O)c8)n7)CC6)C5)C4)CC3)c(F)c2)C(=O)N1` (stereo not shown) [Compound 633, 6-(4-(4-((2,6-dioxopiperidin-3-yl)amino)-2-fluorophenyl)piperidin-1-yl)spiro[3.3]heptan-2-yl 4-((5-fluoro-4-(3-(2-oxopyridin-1 (2H)-yl)phenyl)pyrimidin-2-yl)amino)piperidine-1-carboxylate], the half-maximal degradation concentration (DC50) was less than 500 nM.

Turning to `Cn1nc(C2CCC(=O)NC2=O)c2ccc(N3CCN(CCN4CCC(C(=O)N[C@H]5CC[C@H](Nc6ncc(F)c(-c7cccc(-n8ccccc8=O)c7)n6)CC5)CC4)CC3)cc21` (stereo partly drawn) [Compound 506, trans-1-(2-(4-(3-(2,6-dioxopiperidin-3-yl)-1-methyl-1H-indazol-6-yl)piperazin-1-yl)ethyl)-N-((1r,4r)-4-((5-fluoro-4-(3-(2-oxopyridin-1(2H)-yl)phenyl)pyrimidin-2-yl)amino)cyclohexyl)piperidine-4-carboxamide], the DC50 is less than 500 nM.

The same assay, now with this note: 24 hours incubation, MOLT-4, top concentration 10 micromolar; read-out: HiBIT-degradation MOLT4 PIP4k2C 24 hours DC50.
Regarding `Cn1c(=O)n(C2CCC(=O)NC2=O)c2ccc(C3CCN(C(=O)CC4CCN(C(=O)[C@H]5CCC[C@@H](Nc6ncc(Cl)c(-c7cccc(-c8ccccc8)c7)n6)C5)CC4)CC3)cc21` (relative stereo) [Compound 59, cis-3-(5-(1-(2-(1-(3-((4-([1,1′-biphenyl]-3-yl)-5-chloropyrimidin-2-yl)amino)cyclohexane-1-carbonyl)piperidin-4-yl)acetyl)piperidin-4-yl)-3-methyl-2-oxo-2,3-dihydro-1H-benzo[d]imidazol-1-yl)piperidine-2,6-dione], the DC50 was less than 500 nM.

`O=C1CCC(N2Cc3cc(C4CCN(CC(=O)N5CCN(C(=O)[C@H]6CCC[C@@H](Nc7ncc(Cl)c(-c8cccc(-c9ccccc9)c8)n7)C6)CC5)CC4)ccc3C2=O)C(=O)N1` (relative stereo) [Compound 54, cis-3-(5-(1-(2-(4-(3-((4-([1,1′-biphenyl]-3-yl)-5-chloropyrimidin-2-yl)amino)cyclohexane-1-carbonyl)piperazin-1-yl)-2-oxoethyl)piperidin-4-yl)-1-oxoisoindolin-2-yl)piperidine-2,6-dione]: the DC50 was less than 500 nM.

For `O=C1CCC(n2c(=O)oc3cc(N4CCC(CN5CCN(CC(=O)N[C@H]6CC[C@H](Nc7ncc(F)c(-c8cccc(-n9ccccc9=O)c8)n7)CC6)CC5)CC4)ccc32)C(=O)N1` (stereo partly drawn) [Compound 360, 2-(4-((1-(3-(2,6-dioxopiperidin-3-yl)-2-oxo-2,3-dihydrobenzo[d]oxazol-6-yl)piperidin-4-yl)methyl)piperazin-1-yl)-N-(trans-4-((5-fluoro-4-(3-(2-oxopyridin-1(2H)-yl)phenyl)pyrimidin-2-yl)amino)cyclohexyl)acetamide], the DC50 is less than 500 nM.

`O=C1CCC(Nc2ccc(N3CCC(CN4CCC(NC(=O)[C@H]5CCC[C@@H](Nc6ncc(F)c(-c7cccc(-n8ccccc8=O)c7)n6)C5)CC4)CC3)c(F)c2)C(=O)N1` (relative stereo) [Compound 336, cis-N-(1-((1-(4-((2,6-dioxopiperidin-3-yl)amino)-2-fluorophenyl)piperidin-4-yl)methyl)piperidin-4-yl)-3-((5-fluoro-4-(3-(2-oxopyridin-1(2H)-yl)phenyl)pyrimidin-2-yl)amino)cyclohexane-1-carboxamide]: the DC50 was less than 500 nM.
